Measurements reported in ChEMBL document CHEMBL1146377, “Antitrypanosomal activity of quaternary naphthalimide derivatives” (Bioorg Med Chem Lett, 2007).
pIC50: −log10 of the molar value.

Columns and labels:
[1] = tested on: Trypanosoma brucei brucei; assay: Antitrypanosomal activity against Trypanosoma brucei brucei after 48 hrs; type: functional, organism-based
[2] = Cytotoxicity against J774.1 cells after 48 hrs; type: cell-based; settings: Mus musculus, J774.1, 48 h

Structure (SMILES) | pIC50 [1] | pIC50 [2]
CCC[N+](C)(C)CC(C)(C)CN1C(=O)c2cccc3cccc(c23)C1=O | 5.92 | < 4.00
CN(CCCCCCN(C)CCCN1C(=O)c2cccc3cccc(c23)C1=O)CCCN1C(=O)c2cccc3cccc(c23)C1=O | 7.52 | 5.49
CC(C)(CN1C(=O)c2cccc3cccc(c23)C1=O)C[N+](C)(C)CCCCCCBr | 6.16 | < 4.00
CC(C)(CN1C(=O)c2cccc3cccc(c23)C1=O)C[N+](C)(C)CCCCCC[N+](C)(C)CC(C)(C)CN1C(=O)c2cccc3cccc(c23)C1=O | 5.93 | < 4.00
NCCC[C@](N)(C(=O)O)C(F)F [EFLORNITHINE] | 4.64 | 
N=C(N)c1ccc(OCCCCCOc2ccc(C(=N)N)cc2)cc1 [PENTAMIDINE ISETHIONATE] | 8.57 | 
Cc1ccc(C(=O)Nc2ccc(S(=O)(=O)O)c3cc(S(=O)(=O)O)cc(S(=O)(=O)O)c23)cc1NC(=O)c1cccc(NC(=O)Nc2cccc(C(=O)Nc3cc(C(=O)Nc4ccc(S(=O)(=O)O)c5cc(S(=O)(=O)O)cc(S(=O)(=O)O)c45)ccc3C)c2)c1 [SURAMIN HEXASODIUM] | 6.52 | 

Further lines, with some results ahead:

pIC50 [1] | Structure (SMILES) | pIC50 [2]
4.62 | CC(C)(CN1C(=O)c2cccc3cc(N)cc(c23)C1=O)C[N+](C)(C)CCCCCC[N+](C)(C)CCCN1C(=O)c2ccccc2C1=O | < 4.00
5.37 | CC(C)(CN1C(=O)c2cccc3cccc(c23)C1=O)C[N+](C)(C)CCCCCC[N+](C)(C)CCCN1C(=O)c2cccc3cccc(c23)C1=O | < 4.00
4.64 | CC(C)(CN1C(=O)c2cccc3cc([N+](=O)[O-])cc(c23)C1=O)C[N+](C)(C)CCCCCC[N+](C)(C)CCCN1C(=O)c2ccccc2C1=O | < 4.00
5.23 | CC(C)(CN1C(=O)c2cccc3ccc(N)c(c23)C1=O)C[N+](C)(C)CCCCCC[N+](C)(C)CCCN1C(=O)c2ccccc2C1=O | < 4.00
5.06 | CC(C)(CN1C(=O)c2cccc3ccc([N+](=O)[O-])c(c23)C1=O)C[N+](C)(C)CCCCCC[N+](C)(C)CCCN1C(=O)c2ccccc2C1=O | < 4.00
5.34 | Cc1ccc2c(c1)C(=O)N(CCC[N+](C)(C)CCCCCC[N+](C)(C)CC(C)(C)CN1C(=O)c3cccc4cccc(c34)C1=O)C2=O | < 4.00
4.55 | Cc1ccc2c(c1)C(=O)N(CCC[N+](C)(C)CCCCCC[N+](C)(C)CCCN1C(=O)c3cccc4cccc(c34)C1=O)C2=O | < 4.00
